According to ChEMBL document CHEMBL1138294, “Design and development of water-soluble curcumin conjugates as potential anticancer agents” (J Med Chem, 2007):

What was measured:
PC-3 [1] = test: Cytotoxicity against human PC3 cells at 20 uM; assay type: functional
BXPC-3 = test: Cytotoxicity against human BxPC3 cells; assay type: functional, cell-based
PC-3 [2] = test: Cytotoxicity against human PC3 cells at 10 uM; assay type: functional
MIA PaCa-2 = test: Cytotoxicity against human MIA PaCa2 cells; assay type: functional, cell-based
PC-3 [3] = test: Cytotoxicity against human PC3 cells; assay type: functional, cell-based
LS174T = test: Cytotoxicity against human LS174T cells; assay type: functional, cell-based

With `COc1cc(/C=C/C(=O)CC(=O)/C=C/c2ccc(O)c(OC)c2)ccc1O` [CURCUMIN] the Activity (PC-3 [1]) was 90%, the IC50 (BXPC-3) was 2.9 µM and the Activity (PC-3 [2]) was 65%. It also gave an IC50 (MIA PaCa-2) of 9 µM, an IC50 (PC-3 [3]) of 12 µM and an IC50 (LS174T) of 6.5 µM.
